Data: patent publication US10519152B2, “Compounds and their use in treating cancer” (AstraZeneca AB, priority 2017, dated 2019)

What was measured:
[1] = molecular target: T1, recombinant human Estrogen Receptor alpha ligand binding domain, residues 307-554 (ER alpha-LBD (GST)) (Homo sapiens, UniProt P03372); test: ERα binding assay (LanthaScreen TR-FRET competition); conditions: TR-FRET competition with Fluormone ES2 tracer, 4 hours at room temperature; single experiment or average of two or more
T1 construct: made in house
T1 sequence (P03372 307-554): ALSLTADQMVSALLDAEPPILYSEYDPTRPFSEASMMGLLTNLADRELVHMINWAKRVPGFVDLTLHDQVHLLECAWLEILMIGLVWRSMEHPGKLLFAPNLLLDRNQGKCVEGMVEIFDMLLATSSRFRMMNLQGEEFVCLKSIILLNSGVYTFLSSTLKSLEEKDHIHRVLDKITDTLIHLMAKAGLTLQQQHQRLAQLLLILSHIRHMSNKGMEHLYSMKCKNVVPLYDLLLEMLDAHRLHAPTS

[2] = molecular target: T2, Estrogen Receptor (ERα) in MCF-7 human ductal carcinoma breast cell line (Homo sapiens, UniProt P03372); test: MCF-7 ER degradation assay (cell based immuno-fluorescence); conditions: MCF-7 cells; for DC50: 18-22 hours incubation, 50% reduction of ERα expression, single experiment or average of two or more, read-out: MCF-7 ER degradation IC50; for ER degradation ≥ 90% at 0.3 μM: ER degradation by fulvestrant at 0.3 μM is defined as 100%
T2 construct: endogenous in cells; host or cells: MCF-7
T2 sequence (P03372 1-595): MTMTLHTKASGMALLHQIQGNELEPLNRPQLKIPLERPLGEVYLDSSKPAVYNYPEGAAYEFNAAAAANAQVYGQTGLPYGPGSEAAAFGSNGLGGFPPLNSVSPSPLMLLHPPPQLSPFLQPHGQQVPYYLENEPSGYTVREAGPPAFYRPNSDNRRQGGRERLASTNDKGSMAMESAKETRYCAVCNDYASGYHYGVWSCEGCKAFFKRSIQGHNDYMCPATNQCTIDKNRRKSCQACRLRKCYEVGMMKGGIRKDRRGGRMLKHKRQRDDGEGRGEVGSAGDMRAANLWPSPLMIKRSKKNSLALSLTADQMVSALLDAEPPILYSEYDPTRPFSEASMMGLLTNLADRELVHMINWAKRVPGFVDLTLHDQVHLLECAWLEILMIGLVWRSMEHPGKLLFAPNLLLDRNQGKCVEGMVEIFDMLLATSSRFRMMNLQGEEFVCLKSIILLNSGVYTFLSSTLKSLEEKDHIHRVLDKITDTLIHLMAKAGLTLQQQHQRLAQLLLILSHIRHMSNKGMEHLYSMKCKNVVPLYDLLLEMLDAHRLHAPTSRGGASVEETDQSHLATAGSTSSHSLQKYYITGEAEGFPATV
How it was run: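 MCF-7 human ductal carcinoma breast cells were seeded at 3.75×10^4 cells per mL (40 μL per well) in 384 well plates with phenol red free DMEM containing 2 mM L-Glutamine and 5% (v/v) Charcoal/Dextran treated foetal calf serum. After overnight culture, compounds were acoustically dispensed, incubated 18-22 hours, then cells were formaldehyde-fixed and immunostained for ERα.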

Row | Compound | IC50 [1] | DC50 [2] | ER degradation ≥ 90% at 0.3 μM [2]
1 | Cc1ncsc1-c1ccc(CNC(=O)[C@@H]2C[C@@H](O)CN2C(=O)[C@@H](NC(=O)CN2CCC3(CC2)CCN(C(=O)COc2cc(F)c([C@@H]4c5[nH]c6ccccc6c5C[C@@H](C)N4CC(C)(C)F)c(F)c2)CC3)C(C)(C)C)cc1 [Example 44, (2S,4R)-1-((S)-2-(2-(9-(2-(3,5-difluoro-4-((R,3R)-2-(2-fluoro-2-methylpropyl)-3-methyl-2,3,4,9-tetrahydro-1H-pyrido[3,4-b]indol-1-yl)phenoxy)acetyl)-3,9-diazaspiro[5.5]undecan-3-yl)acetamido)-3,3-dimethylbutanoyl)-4-hydroxy-N-(4-(4-methylthiazol-5-yl)benzyl)pyrrolidine-2-carboxamide] | 1.3 nM | 1.8 nM | 
2 | Cc1ncsc1-c1ccc(CNC(=O)[C@@H]2C[C@@H](O)CN2C(=O)[C@@H](NC(=O)COCCCCCN2CC(Oc3cc(F)c([C@@H]4c5[nH]c6ccccc6c5C[C@@H](C)N4CC(C)(C)F)c(F)c3)C2)C(C)(C)C)cc1 [Example 46, (2S,4R)-1-((S)-2-(2-((5-(3-(3,5-difluoro-4-((1R,3R)-2-(2-fluoro-2-methylpropyl)-3-methyl-2,3,4,9-tetrahydro-1H-pyrido[3,4-b]indol-1-yl)phenoxy)azetidin-1-yl)pentyl)oxy)acetamido)-3,3-dimethylbutanoyl)-4-hydroxy-N-(4-(4-methylthiazol-5-yl)benzyl)pyrrolidine-2-carboxamide] | 0.8 nM | 2 nM | 
3 | Cc1ncsc1-c1ccc(CNC(=O)[C@@H]2C[C@@H](O)CN2C(=O)[C@@H](NC(=O)COCC#CC#CCOc2cc(F)c([C@@H]3c4[nH]c5ccccc5c4C[C@@H](C)N3CC(C)(C)F)c(F)c2)C(C)(C)C)cc1 [Example 50, (2S,4R)-1-((S)-2-(2-((6-(3,5-difluoro-4-((1R,3R)-2-(2-fluoro-2-methylpropyl)-3-methyl-2,3,4,9-tetrahydro-1H-pyrido[3,4-b]indol-1-yl)phenoxy)hexa-2,4-diyn-1-yl)oxy)acetamido)-3,3-dimethylbutanoyl)-4-hydroxy-N-(4-(4-methylthiazol-5-yl)benzyl)pyrrolidine-2-carboxamide] | 1.2 nM | 6.6 nM | 
4 | CC(=O)O[C@@H]1C[C@@H](C(=O)NCc2ccc(-c3scnc3C)cc2)N(C(=O)[C@@H](NC(=O)COCCCCCCOc2cc(F)c([C@@H]3c4[nH]c5ccccc5c4C[C@@H](C)N3CC(C)(C)F)c(F)c2)C(C)(C)C)C1 [Example 52, (3R,5S)-1-((S)-2-(2-((6-(3,5-difluoro-4-((1R,3R)-2-(2-fluoro-2-methylpropyl)-3-methyl-2,3,4,9-tetrahydro-1H-pyrido[3,4-b]indol-1-yl)phenoxy)hexyl)oxy)acetamido)-3,3-dimethylbutanoyl)-5-((4-(4-methylthiazol-5-yl)benzyl)carbamoyl)pyrrolidin-3-yl acetate] | 1.1 nM | 2.1 nM | 
5 | Cc1ncsc1-c1ccc(CNC(=O)[C@@H]2C[C@@H](O)CN2C(=O)[C@@H](NC(=O)COC2CCN(CCCNC(=O)/C=C/c3cc(F)c([C@@H]4c5[nH]c6ccccc6c5C[C@@H](C)N4CC(C)(C)F)c(F)c3)CC2)C(C)(C)C)cc1 [Example 65, (2S,4R)-1-((S)-2-(2-((1-(3-((E)-3-(3,5-difluoro-4-((1R,3R)-2-(2-fluoro-2-methylpropyl)-3-methyl-2,3,4,9-tetrahydro-1H-pyrido[3,4-b]indol-1-yl)phenyl)acrylamido)propyl)piperidin-4-yl)oxy)acetamido)-3,3-dimethylbutanoyl)-4-hydroxy-N-(4-(4-methylthiazol-5-yl)benzyl)pyrrolidine-2-carboxamide, Trifluoroacetic Acid] | 1.1 nM | 4.5 nM | 
6 | Cc1ncsc1-c1ccc(CNC(=O)[C@@H]2C[C@@H](O)CN2C(=O)[C@@H](NC(=O)COCCCCCOc2cc(F)c([C@@H]3c4[nH]c5ccccc5c4C[C@@H](C)N3CC(F)(F)CO)c(F)c2)C(C)(C)C)cc1 [Example 70, (2S,4R)-1-((S)-2-(2-((5-(4-((1R,3R)-2-(2,2-Difluoro-3-hydroxypropyl)-3-methyl-2,3,4,9-tetrahydro-1H-pyrido[3,4-b]indol-1-yl)-3,5-difluorophenoxy)pentyl)oxy)acetamido)-3,3-dimethylbutanoyl)-4-hydroxy-N-(4-(4-methylthiazol-5-yl)benzyl)pyrrolidine-2-carboxamide] | 0.8 nM | 0.9 nM | 
7 | Cc1ncsc1-c1ccc(CNC(=O)[C@@H]2C[C@@H](O)CN2C(=O)[C@@H](NC(=O)COCCCOCCCOc2cc(F)c([C@@H]3c4[nH]c5ccccc5c4C[C@@H](C)N3CC(C)(C)F)c(F)c2)C(C)(C)C)cc1 [Example 72, (2S,4R)-1-((S)-2-(2-(3-(3-(3,5-Difluoro-4-((1R,3R)-2-(2-fluoro-2-methylpropyl)-3-methyl-2,3,4,9-tetrahydro-1H-pyrido[3,4-b]indol-1-yl)phenoxy)propoxy)propoxy)acetamido)-3,3-dimethylbutanoyl)-4-hydroxy-N-(4-(4-methylthiazol-5-yl)benzyl)pyrrolidine-2-carboxamide] | 0.6 nM |  | ••
8 | Cc1ncsc1-c1ccc(CNC(=O)[C@@H]2C[C@@H](O)CN2C(=O)[C@@H](NC(=O)COCCCc2cccc(COc3cc(F)c([C@@H]4c5[nH]c6ccccc6c5C[C@@H](C)N4CC(C)(C)F)c(F)c3)c2)C(C)(C)C)cc1 [Example 73, (2S,4R)-1-((S)-2-(2-(3-(3-((3,5-Difluoro-4-((1R,3R)-2-(2-fluoro-2-methylpropyl)-3-methyl-2,3,4,9-tetrahydro-1H-pyrido[3,4-b]indol-1-yl)phenoxy)methyl)phenyl)propoxy)acetamido)-3,3-dimethylbutanoyl)-4-hydroxy-N-(4-(4-methylthiazol-5-yl)benzyl)pyrrolidine-2-carboxamide] | 1 nM |  | ••
9 | Cc1ncsc1-c1ccc(CNC(=O)[C@@H]2C[C@@H](O)CN2C(=O)[C@@H](NC(=O)CNCCCCCOc2cc(F)c([C@@H]3c4[nH]c5ccccc5c4C[C@@H](C)N3CC(C)(C)F)c(F)c2)C(C)(C)C)cc1 [Example 89, (2S,4R)-1-((S)-2-(2-((5-(3,5-Difluoro-4-((1R,3R)-2-(2-fluoro-2-methylpropyl)-3-methyl-2,3,4,9-tetrahydro-1H-pyrido[3,4-b]indol-1-yl)phenoxy)pentyl)amino)acetamido)-3,3-dimethylbutanoyl)-4-hydroxy-N-(4-(4-methylthiazol-5-yl)benzyl)pyrrolidine-2-carboxamide] | 0.7 nM | 0.7 nM | 
10 | Cc1ncsc1-c1ccc(CNC(=O)[C@@H]2C[C@@H](O)CN2C(=O)[C@@H](NC(=O)CN(C)CCCCCOc2cc(F)c(C3c4[nH]c5ccccc5c4C[C@@H](C)N3CC(C)(C)F)c(F)c2)C(C)(C)C)cc1 (stereo partly drawn) [Example 90, (2S,4R)-1-((S)-2-(2-((5-(3,5-Difluoro-4-((1R,3R)-2-(2-fluoro-2-methylpropyl)-3-methyl-2,3,4,9-tetrahydro-1H-pyrido-[3,4-b]indol-1-yl)phenoxy)pentyl)(methyl)amino)acetamido)-3,3-dimethylbutanol)-4-hydroxy-N-(4-(4-methylthiazol-5-yl)benzyl)pyrrolidine-2-carboxamide] | 1.2 nM | 102 nM | 
11 | Cc1ncsc1-c1ccc(CNC(=O)[C@@H]2C[C@@H](O)CN2C(=O)[C@@H](NC(=O)CCOCCCCOc2cc(F)c([C@@H]3c4[nH]c5ccccc5c4C[C@@H](C)N3CC(C)(C)F)c(F)c2)C(C)(C)C)cc1 [Example 92, (2S,4R)-1-((S)-2-(3-(4-(3,5-difluoro-4-((1R,3R)-2-(2-fluoro-2-methylpropyl)-3-methyl-2,3,4,9-tetrahydro-1H-pyrido[3,4-b]indol-1-yl)phenoxy)butoxy)propanamido)-3,3-dimethylbutanoyl)-4-hydroxy-N-(4-(4-methylthiazol-5-yl)benzyl)pyrrolidine-2-carboxamide] | 0.6 nM | 0.4 nM | 
